Tests used:
ROK = conditions: hypertensive mice; cited from earlier work
[1] = test system: ZIP-like-kinase (SMPP-1M associated kinase, MYPT-kinase); test: In vitro kinase assay against the Thr697 peptide, native ZIP-like-kinase (MYPT-kinase) compared with ROK; type: biochemical, cow; conditions: levels needed versus ROK
Procedure: Kinase and phosphatase assays. Kinase assays included 10 μL of enzyme diluted in 25 mM Hepes, pH 7.4, 1 mM DTT, and 100 μM Thr^697 peptide. Reactions were started with addition of 20 μL Mg^2+ ATP (5 mM MgCl2 and 0.1 mM ATP (5000 cpm/nmol) and carried out at 25° C. Reactions were terminated after 20 min with the addition of 100 μL of 20 mM H3PO4. Aliquots (100 μL) of the reaction mixture were spotted on to P81 paper and washed four times with 20 mM H3PO4. The P81 paper was placed into 1.5 mL Eppendorf tubes and ^32P incorporation was determined by scintillation counting. Phosphatase assays were carried out as described (Shirazi et al, J. Biol. Chem. 269:31598-31606 (1994)).
Purification of the SMPP-1M associated kinase. The SMPP-1M associated kinase was isolated from cow bladders following initial steps outlined for purification of SMPP-1M from pig bladder (Shirazi et al, J. Biol. Chem. 269:31598-31606 (1994)). Following extraction of the myofibrillar pellet, the extract was diluted with 2 volumes of buffer C (20 mM Tris, pH 7.5, 25 mM MgCl2, and 1 mM DTT with protease inhibitors), clarified by centrifugation (100,000 g, 45 min) and applied to a 5.0×10-cm column of ethylenediamine γ-linked ATP Sepharose equilibrated in buffer C. […] The purity of SMPP-1M kinase was assessed by SDS-PAGE and silver staining.

ZIP-like-kinase = ZIP-like-kinase activity and phosphorylation in treated rabbit bladder smooth muscle (immunoprecipitates); type: cell-based
MYPT1 = MYPT1 phosphorylation in 32P-labeled intact smooth muscle (rabbit bladder); type: cell-based; conditions: carbachol stimulation

Question: Which results are given for `C[C@@H](N)[C@H]1CC[C@H](C(=O)Nc2ccncc2)CC1` [Y-27632]?
Answer: Blood pressure (ROK): decreased blood pressure; Inhibition of native ZIP-like-kinase (MYPT-kinase): levels relative to those for ROK [1]: 200 fold; Inhibition of ZIP-like-kinase activity (ZIP-like-kinase; 10 μM, carbachol and calyculin A treated bladder): significant inhibition

Question: For `COC[C@@H]([C@H](O)[C@H](O)C(=O)NCC[C@H](C)c1nc(/C=C/C[C@@H]2O[C@]3(C[C@@H](O)[C@@H]2C)O[C@H]([C@H](C[C@H](O)[C@H](C)[C@H](O)[C@H](C)/C=C(C)/C(C)=C/C=C/C(C)=C\C#N)OC)[C@H](OP(=O)(O)O)C3(C)C)co1)N(C)C` [calyculin A], which “Reduction of ZIP-like-kinase activation in the absence of calyculin A” value (ZIP-like-kinase; carbachol-treated bladder without calyculin A) is on record?
Answer: about 50%

Question: Which “MYPT1 phosphorylation state (four phosphopeptides; major site Thr697)” value (MYPT1) does the source give for `C[N+](C)(C)CCOC(N)=O` [carbachol] here?
Answer: increased

Question: And the “ZIP-like-kinase phosphorylation and activation” value (ZIP-like-kinase)?
Answer: phosphorylated and activated

Reference: patent US20030017568A1, “Smooth muscle myosin phosphatase associated kinase” (priority 2001, published 2003)
